In data set [1] the test system is HBV. The data set can be described thus: Anti-HBV activity, HepG2.117 inducible HBV producing cell line (Tet-off), intracellular HBV DNA by realtime PCR. It is filed as cell-based. The conditions noted are these: Hepatitis B virus.
Data set [2] is described as follows: Cytotoxicity in HepG2 cells, Resazurin viability assay. The conditions noted are these: human.
Data set [3] relates to HBV. Briefly: Anti-HBV activity, HepG2.2.15 stable transfected cell line, HBV DNA from secreted virions by realtime PCR. It is filed as cell-based. The conditions noted are these: Hepatitis B virus.
The mark [4] stands for this setting: 72 h, HepG2.117 cells, 3 days of treatment, intracellular HBV DNA, read-out: HepG2 117 EC50.
[5] abbreviates: 144 h, HepG2.2.15 cells, 6 days of treatment, HBV DNA from secreted virions, read-out: HepG 2.2.15 EC50.

This is an account of results in US10450270B2, “Glyoxamide substituted pyrrolamide derivatives and the use thereof as medicaments for the treatment of hepatitis B” (Janssen Sciences Ireland UC, priority 2013, dated 2019).

Structures are written as SMILES.

As usually defined, the EC50 is the concentration that produces a half-maximal response. As a reminder, the CC50 is the concentration at which the toxic effect on the cells reaches its halfway point. A high value points to lower toxicity to the cells. For `Cc1c(C(=O)C(=O)NC(C)(C)C)c(C)n(C)c1C(=O)Nc1ccc(F)c(C#N)c1` [Compound 19, 4-[(tert-Butylamino)(oxo)acetyl]-N-(3-cyano-4-fluorophenyl)-1,3,5-trimethyl-1H-pyrrole-2-carboxamide], the results for the concentration giving a half-maximal response (EC50) with HBV [1] (setting [4]) and in the data set with HBV [3] (setting [5]) were 0.002 µM and less than 0.004 µM, respectively. Also, the cytotoxic concentration (CC50) at 4 days in data set [2] (HepG2 cells) is more than 100 µM.

Turning to `Cn1cc(C(=O)C(=O)NC(C)(C)C)cc1C(=O)Nc1cc(F)c(F)c(Cl)c1` [Compound 14, 4-(2-(tert-butylamino)-2-oxoacetyl)-N-(3-chloro-4,5-difluorophenyl)-1-methyl-1H-pyrrole-2-carboxamide], the half-maximal effective concentration (EC50) in the data set with HBV [1] (setting [4]) came to 0.038 µM; in the data set on HBV [3] (setting [5]), 0.03 µM. This compound also displayed a half-maximal cytotoxic concentration (CC50) at 4 days in data set [2] (HepG2 cells) of more than 25 µM.

Take `Cn1cc(C(=O)C(=O)NC(C)(C)C)cc1C(=O)Nc1ccc(F)c(C#N)c1` [Compound 15, 4-(2-(tert-butylamino)-2-oxoacetyl)-N-(3-cyano-4-fluorophenyl)-1-methyl-1H-pyrrole-2-carboxamide]: the results for the half-maximal effective concentration (EC50) in the data set with HBV [1] (setting [4]) and in the data set on HBV [3] (setting [5]) were 0.043 µM and 0.027 µM, respectively. In data set [2] (HepG2 cells), the CC50 at 4 days is more than 25 µM.

For `Cc1c(C(=O)C(=O)NC(C)(C)C)cn(C)c1C(=O)Nc1ccc(F)c(F)c1` [Compound 21, 4-[(tert-Butylamino)(oxo)acetyl]-N-(3,4-difluorophenyl)-1,3-dimethyl-1H-pyrrole-2-carboxamide], the EC50 amounted to 0.011 µM in the data set on HBV [1] (setting [4]) and 0.009 µM in the data set on HBV [3] (setting [5]). The same compound came in with a CC50 at 4 days in data set [2] (HepG2 cells) of more than 25 µM.

For the compound `Cc1c(C(=O)C(=O)N[C@H](C)C(F)(F)F)cc(C(=O)Nc2ccc(F)c(C#N)c2)n1C` [Compound 28, N-(3-cyano-4-fluoro-phenyl)-1,5-dimethyl-4-[2-oxo-2-[[(1R)-2,2,2-trifluoro-1-methyl-ethyl]amino]acetyl]pyrrole-2-carboxamide], the EC50 with HBV [1] (setting [4]) is 0.019 µM; with HBV [3] (setting [5]), less than 0.004 µM. This compound had a CC50 at 4 days in data set [2] (HepG2 cells) of more than 25 µM.

Consider `Cc1c(C(=O)C(=O)NC(C)(C)C)cn(C)c1C(=O)Nc1ccc(F)c(C#N)c1` [Compound 22, 4-[(tert-Butylamino)(oxo)acetyl]-N-(3-cyano-4-fluorophenyl)-1,3-dimethyl-1H-pyrrole-2-carboxamide], for which the EC50 in the data set with HBV [1] (setting [4]) was determined as 0.008 µM; in the data set on HBV [3] (setting [5]), 0.01 µM. The CC50 at 4 days in data set [2] (HepG2 cells) is more than 25 µM.

As for `Cc1c(C(=O)C(=O)NC(C)(C)C)c(Cl)c(C(=O)Nc2ccc(F)c(C#N)c2)n1C` [Compound 32, 4-[2-(tert-butylamino)-2-oxo-acetyl]-3-chloro-N-(3-cyano-4-fluoro-phenyl)-1,5-dimethyl-pyrrole-2-carboxamide], the EC50 in the data set on HBV [1] (setting [4]) and in the data set on HBV [3] (setting [5]) was less than 0.004 µM each time. In addition, the CC50 at 4 days in data set [2] (HepG2 cells) is more than 25 µM.

For the compound `Cc1c(C(=O)C(=O)NC(C)(C)C)c(C)n(C)c1C(=O)Nc1ccc(F)c(F)c1` [Compound 20, 4-[(tert-Butylamino)(oxo)acetyl]-N-(3,4-difluorophenyl)-1,3,5-trimethyl-1H-pyrrole-2-carboxamide], the EC50 in the data set on HBV [1] (setting [4]) was 0.002 µM; in the data set with HBV [3] (setting [5]), less than 0.004 µM. The CC50 at 4 days in data set [2] (HepG2 cells) was more than 25 µM.

As for `Cc1cc(NC(=O)c2cc(C(=O)C(=O)NC(C)(C)C)cn2C)ccc1F` [Compound 3, 4-(2-(tert-butylamino)-2-oxoacetyl)-N-(4-fluoro-3-methylphenyl)-1-methyl-1H-pyrrole-2-carboxamide], the EC50 in the data set on HBV [1] (setting [4]) is 0.04 µM; in the data set on HBV [3] (setting [5]), 0.015 µM. The compound further showed a CC50 at 4 days in data set [2] (HepG2 cells) of more than 25 µM.

For the compound `Cc1c(C(=O)C(=O)N[C@H](C)C(F)(F)F)c(Cl)c(C(=O)Nc2ccc(F)c(C#N)c2)n1C` [Compound 30, 3-chloro-N-(3-cyano-4-fluoro-phenyl)-1,5-dimethyl-4-[2-oxo-2-[[(1R)-2,2,2-trifluoro-1-methyl-ethyl]amino]acetyl]pyrrole-2-carboxamide], the EC50 in the data set with HBV [1] (setting [4]) was 0.003 µM; with HBV [3] (setting [5]), less than 0.004 µM. Besides, the CC50 at 4 days in data set [2] (HepG2 cells) is more than 25 µM.

Regarding `C[C@@H](NC(=O)C(=O)c1cc(C(=O)Nc2cc(F)c(F)c(Cl)c2)n(C)c1)C(F)(F)F` [Compound 18, N-(3-Chloro-4,5-difluorophenyl)-1-methyl-4-(oxo{[(1R)-2,2,2-trifluoro-1-methylethyl]amino}acetyl)-1H-pyrrole-2-carboxamide], the EC50 with HBV [1] (setting [4]) amounted to 0.37 µM; in the data set on HBV [3] (setting [5]), 0.054 µM. This compound also showed a CC50 at 4 days in data set [2] (HepG2 cells) of more than 25 µM.

On to `Cn1cc(C(=O)C(=O)NC(C)(C)C)cc1C(=O)Nc1cccc(C(F)(F)F)c1` [Compound 12, 4-(2-(tert-butylamino)-2-oxoacetyl)-1-methyl-N-(3-(trifluoromethyl)phenyl)-1H-pyrrole-2-carboxamide], for which the EC50 is 0.74 µM in the data set on HBV [1] (HepG2.117, 72 h, read-out: HepG2 117 EC50 (μM)) and 0.043 µM in the data set on HBV [3] (HepG2.2.15, 144 h, read-out: HepG 2.2.15 EC50 (μM)). The same compound showed a half-maximal cytotoxic concentration (CC50) at 4 days in data set [2] of more than 25 µM.

In the case of `C[C@@H](NC(=O)C(=O)c1c(F)c(C(=O)Nc2ccc(F)c(C#N)c2)n(C)c1Cl)C(F)(F)F` [Compound 91, 5-chloro-N-(3-cyano-4-fluoro-phenyl)-3-fluoro-1-methyl-4-[2-oxo-2-[[(1R)-2,2,2-trifluoro-1-methyl-ethyl]amino]acetyl]pyrrole-2-carboxamide], in the data set on HBV [1] (setting [4]), the EC50 is 0.3 µM. In data set [2] (HepG2 cells), this compound had a CC50 at 4 days of more than 25 µM.

On to `Cc1c(C(=O)C(=O)N[C@H](C)C(C)(F)F)c(Cl)c(C(=O)Nc2ccc(F)c(C#N)c2)n1C` [Compound 46, 3-chloro-N-(3-cyano-4-fluoro-phenyl)-4-[2-[[(1R)-2,2-difluoro-1-methyl-propyl]amino]-2-oxo-acetyl]-1,5-dimethyl-pyrrole-2-carboxamide], for which the EC50 in the data set on HBV [1] (setting [4]) was 0.003 µM. In data set [2] (HepG2 cells), the CC50 at 4 days was more than 25 µM.

For the compound `Cn1c(C(=O)Nc2ccc(F)c(C#N)c2)c(Cl)c(C(=O)C(=O)NC(C)(C)C)c1C1CC1` [Compound 48, 4-[2-(tert-butylamino)-2-oxo-acetyl]-3-chloro-N-(3-cyano-4-fluoro-phenyl)-5-cyclopropyl-1-methyl-pyrrole-2-carboxamide], in the data set with HBV [1] (setting [4]), the concentration giving a half-maximal response (EC50) turned out to be 0.022 µM. Also, in data set [2] (HepG2 cells), the CC50 at 4 days is more than 25 µM.

Consider `Cc1c(C(=O)C(=O)NC2(C)COC2)c(Cl)c(C(=O)Nc2ccc(F)c(C#N)c2)n1C` [Compound 44, 3-chloro-N-(3-cyano-4-fluoro-phenyl)-1,5-dimethyl-4-[2-[(3-methyloxetan-3-yl)amino]-2-oxo-acetyl]pyrrole-2-carboxamide], for which the EC50 in the data set with HBV [1] (setting [4]) turned out to be 0.003 µM. The CC50 at 4 days in data set [2] (HepG2 cells) is more than 25 µM.

As to `Cc1c(C(=O)C(=O)NC(C)C)cc(C(=O)Nc2ccc(F)c(C#N)c2)n1C` [Compound 52, N-(3-cyano-4-fluoro-phenyl)-4-[2-(isopropylamino)-2-oxo-acetyl]-1,5-dimethyl-pyrrole-2-carboxamide], the EC50 with HBV [1] (setting [4]) was determined as 0.067 µM. This compound yielded a CC50 at 4 days in data set [2] (HepG2 cells) of more than 25 µM.

For `CC[C@@H](C)NC(=O)C(=O)c1cc(C(=O)Nc2ccc(F)c(C#N)c2)n(C)c1C` [Compound 53, N-(3-cyano-4-fluoro-phenyl)-1,5-dimethyl-4-[2-[[(1R)-1-methylpropyl]-amino]-2-oxo-acetyl]pyrrole-2-carboxamide], in the data set on HBV [1] (setting [4]), the EC50 was 0.039 µM. The compound further gave a CC50 at 4 days in data set [2] (HepG2 cells) of more than 25 µM.

For the compound `Cc1c(C(=O)C(=O)N[C@@H](C)C(C)(F)F)cc(C(=O)Nc2ccc(F)c(C#N)c2)n1C` [Compound 55, N-(3-cyano-4-fluoro-phenyl)-4-[2-[[(1S)-2,2-difluoro-1-methyl-propyl]-amino]-2-oxo-acetyl]-1,5-dimethyl-pyrrole-2-carboxamide], the EC50 in the data set on HBV [1] (setting [4]) was determined as 0.009 µM. Further, the CC50 at 4 days in data set [2] (HepG2 cells) is more than 25 µM.

Take `Cc1c(C(=O)C(=O)N[C@H]2CCN(C)C[C@H]2O)cc(C(=O)Nc2ccc(F)c(C#N)c2)n1C` [Compound 62, N-(3-cyano-4-fluoro-phenyl)-4-[2-[[(3R,4S)-3-hydroxy-1-methyl-4-piperidyl]amino]-2-oxo-acetyl]-1,5-dimethyl-pyrrole-2-carboxamide]: the concentration for a half-maximal effect (EC50) in the data set on HBV [1] (setting [4]) is 0.23 µM. Further, in data set [2] (HepG2 cells), the CC50 at 4 days is more than 25 µM.

With `CC[C@H](C)[C@@H](CO)NC(=O)C(=O)c1cc(C(=O)Nc2ccc(F)c(C#N)c2)n(C)c1C` [Compound 69, N-(3-cyano-4-fluoro-phenyl)-4-[2-[[(1S,2S)-1-(hydroxymethyl)-2-methyl-butyl]amino]-2-oxo-acetyl]-1,5-dimethyl-pyrrole-2-carboxamide], the EC50 in the data set on HBV [1] (setting [4]) was found to be 0.049 µM. Further, in data set [2] (HepG2 cells), the CC50 at 4 days is more than 25 µM.

Consider `C[C@@H](NC(=O)C(=O)c1c(Cl)c(C(=O)Nc2ccc(F)c(C#N)c2)n(C)c1Cl)C(F)(F)F` [Compound 86, 3,5-dichloro-N-(3-cyano-4-fluoro-phenyl)-1-methyl-4-[2-oxo-2-[[(1R)-2,2,2-trifluoro-1-methyl-ethyl]amino]acetyl]pyrrole-2-carboxamide], for which, in the data set on HBV [1] (setting [4]), the EC50 was 0.006 µM. In data set [2] (HepG2 cells), this compound had a CC50 at 4 days of more than 25 µM.

With `Cc1c(C(=O)C(=O)NC(C)(CO)C2CC2)cc(C(=O)Nc2ccc(F)c(C#N)c2)n1C` (centres unmarked) [Compound 77, N-(3-cyano-4-fluoro-phenyl)-4-[2-[(1-cyclopropyl-2-hydroxy-1-methyl-ethyl)amino]-2-oxo-acetyl]-1,5-dimethyl-pyrrole-2-carboxamide], the EC50 in the data set with HBV [1] (setting [4]) was 0.012 µM. The CC50 at 4 days in data set [2] (HepG2 cells) was more than 25 µM.

`Cc1c(C(=O)C(=O)NC2(C)CC(F)(F)C2)c(Cl)c(C(=O)Nc2ccc(F)c(C#N)c2)n1C` [Compound 47, 3-chloro-N-(3-cyano-4-fluoro-phenyl)-4-[2-[(3,3-difluoro-1-methyl-cyclo-butyl)amino]-2-oxo-acetyl]-1,5-dimethyl-pyrrole-2-carboxamide]: the EC50 in the data set on HBV [1] (setting [4]) was less than 0.004 µM. The same compound yielded a CC50 at 4 days in data set [2] (HepG2 cells) of more than 25 µM.

As for `Cn1cc(C(=O)C(=O)NC2(C(F)(F)F)CCC2)c(Cl)c1C(=O)Nc1ccc(F)c(C#N)c1` [Compound 39, 3-chloro-N-(3-cyano-4-fluoro-phenyl)-1-methyl-4-[2-oxo-2-[[1-(tri-fluoromethyl)cyclobutyl]amino]acetyl]pyrrole-2-carboxamide], in the data set with HBV [1] (setting [4]), the EC50 stood at 0.006 µM. For the same compound, in data set [2] (HepG2 cells), the CC50 at 4 days is more than 25 µM.
